The target in one experiment is T1, HCV helicase (Hepatitis C virus genotype 1b, UniProt Q9WMX2).
T1 construct: truncated C-terminally His-tagged NS3 proteins lacking the N-terminal protease, called NS3h; His-tag (C); made in house
The experiment in a line: MBHA with RNA substrate (HCV helicase-catalyzed RNA unwinding). It is filed as biochemical. The settings on record: in words. From the text: All oligonucleotides were purchased from Integrated DNA Technologies (IDT, Coralville, Iowa). The partially duplex DNA substrates used in MBHAs consisted of a helicase substrate forming 25 base pairs and consists of a 45-mer bottom strand 5′-GCTCCCCGTTCATCGATTGGGGAGC(T)20-3′ (SEQ ID NO:1) and the 25-mer HCV top strand 5′-Cy5-GCTCCCCAATCGATGAACGGGGAGC-IBRQ-3′ (SEQ ID NO:2). The 19 base pair RNA substrate used in MBHAs was composed of a 39 nucleotide long bottom strand 5′-AGU GCC UUG ACG AUA CAG C(U)20-3′ (SEQ ID NO:3) and the 24 nucleotide long top strand 5′-Tye^665-AGUGCGCUGUAUCGUCAAGGCACU-IBRQSp-3′ (SEQ ID NO:4). Underlined areas denote hairpin-forming regions. DNA and RNA substrates were annealed and purified as described previously (Belon & Frick (2008) BioTechniques 45:433-40, 442).
All molecular beacon-based helicase assays (MBHAs) were performed according to known methods (Belon & Frick (2008) supra; Belon & Frick (2009) supra). […] In each flat, black 384-well plate, 56 compounds were tested, in triplicate, along with three negative controls (DMSO only), three positive controls (500 nM dT20), and two wells with no enzyme. Fluorescence was read before ATP (F0) addition and 30 minutes after ATP was added to 1 mM (F30) using a Tecan Infinite M200 fluorescence microplate reader with excitation and emission wavelengths set to 643 and 670 nm, respectively. Percent inhibition was calculated with equation 1, and compound interference in the MBHA was calculated with equation 2.
To monitor helicase reaction kinetics and to calculate IC50 values, MBHAs were performed in 60 μL in white ½ area 96-well plates and measured in a Thermo Varioscan Multimode reader (Thermo Scientific) using the 643 nm excitation wavelength and 667 emission wavelengths. […] Initial reaction velocities were calculated by fitting first-order decay equation to data obtained after ATP addition and calculating an initial velocity form the resulting amplitude and rate constant.

Experiment [1] relates to NS5A in Huh7.5/HCV Con1sg Rluc replicon cells. The experiment in a line: Western blot of NS5A in replicon cells. Conditions: 4-day exposure. It is filed as cell-based, hepatitis C virus. The protocol:
To analyze effects on HCV proteins expression by western blot, Huh7.5/HCV Con1sg Rluc replicon stable cells were washed with PBS, harvested in PBS, and lysed with RIPA buffer for 20 minutes on ice and cleared lysates were obtained by centrifugation at 14,000 rpm for 20 minutes at 4° C. Protein concentrations were determined with the BIO-RAD protein assay kit (Bio-Rad) and 15 μg total proteins was resolved on 10% sodium dodecyl sulfate-polyacrylamide gel electrophoresis (SDS-PAGE) and transferred to nitrocellulose membrane. The blots were probed with primary anti-NS5A mAb (Meridian life Sciences, Saco, Me.) and a peroxidase-conjugated secondary antibody (Cell Signaling, Danvers, Mass.) and were developed with enhanced chemiluminescence (ECL) detection reagents (Pierce, Rockford, Ill.). The blots were stripped and probed again with primary anti-tubulin antibody (Sigma) to confirm equal loading of protein and a peroxidase-conjugated anti-mouse secondary antibody (Cell Signaling) and developed with ECL reagents (Pierce).
To further characterize the anti-viral activity of this class of compounds, HCV Renilla luciferase (Rluc) subgenomic replicon cells were exposed to different concentrations of compound 24 and the effect of compound 24 on HCV replication was assessed on HCV Rluc reporter gene activity. […]
A general note: Immunoblotting shows a protein as a band on a membrane.

T1 sequence (Q9WMX2 1192-1657): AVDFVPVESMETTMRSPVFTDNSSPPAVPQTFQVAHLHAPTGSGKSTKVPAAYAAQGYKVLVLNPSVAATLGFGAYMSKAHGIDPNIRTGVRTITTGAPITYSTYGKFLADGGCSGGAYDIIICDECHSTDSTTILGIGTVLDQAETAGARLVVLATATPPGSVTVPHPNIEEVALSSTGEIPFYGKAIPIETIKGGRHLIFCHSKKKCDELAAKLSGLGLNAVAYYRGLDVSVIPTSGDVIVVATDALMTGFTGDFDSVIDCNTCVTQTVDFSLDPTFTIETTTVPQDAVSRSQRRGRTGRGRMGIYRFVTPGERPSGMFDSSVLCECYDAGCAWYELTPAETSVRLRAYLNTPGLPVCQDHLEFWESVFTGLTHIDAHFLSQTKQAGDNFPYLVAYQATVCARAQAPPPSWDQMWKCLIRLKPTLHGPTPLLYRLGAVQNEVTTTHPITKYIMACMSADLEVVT

On to `Cc1ccc2nc(-c3ccc4nc(-c5ccc(NC(=O)c6cccc(Cl)c6)cc5)sc4c3)sc2c1S(=O)(=O)O` [Compound 17, 2′-(4-(3-chlorobenzamido)phenyl)-6-methyl-[2,6′-bibenzo[d]thiazole]-7-sulfonic acid], for which the “effect on HCV helicase catalyzed RNA unwinding” value at HCV helicase is reported as “inhibited HCV helicase-catalyzed RNA-unwinding”. Consider `Cc1ccc2nc(-c3ccc4nc(-c5ccc(NC(=O)c6cc(C(F)(F)F)cc(C(F)(F)F)c6)cc5)sc4c3)sc2c1S(=O)(=O)O` [Compound 24, 2′-(4-(3,5-bis(trifluoromethyl)benzamido)phenyl)-6-methyl-[2,6′-bibenzo[d]thiazole]-7-sulfonic acid], for which, in experiment [1], the “cellular NS5A levels” value is on record as “reduced NS5A levels in a time-dependent manner”.

The values are drawn from patent publication US9464064B2, “HCV helicase inhibitors and methods of use thereof” (University of Kansas, priority 2011, dated 2016).
